From ChEMBL document CHEMBL3272205, “Pyrazolodiazepines. 2. 4-Aryl-1,3-dialkyl-6,8-dihydropyrazolo[3,4-e] [1,4]diazepin-7(1H)-ones as antianxiety and anticonvulsant agents” (1977)

How the values were obtained:
Type in all cases: functional
Rattus norvegicus [1] = species: Rattus norvegicus; test: Anticonvulsant activity in rat assessed as protection against pentylenetetrazole-induced clonic seizures; details: read-out: MED
Rattus norvegicus [2] = species: Rattus norvegicus; test: Antianxiety activity in Holtzman rat assessed as dose required to elicit increase in milk consumption; details: read-out: MED
Rattus norvegicus [3] = species: Rattus norvegicus; test: Ratio of diazepam MED to compound MED for antianxiety activity in Holtzman rat

Compound | minimal effective dose (Rattus norvegicus [1]) | minimal effective dose (Rattus norvegicus [2]) | Ratio (Rattus norvegicus [3])
Cc1nn(C(C)C)c2c1C(c1ccccc1Cl)=NCC(=O)N2 | 16 mg/kg | 20 mg/kg | –
Cc1nn(C)c2c1C(c1ccccc1F)=[N+]([O-])CC(=O)N2C | 8 mg/kg | 10 mg/kg | –
Cc1nn(C)c2c1C(c1ccccc1F)=NC(O)C(=O)N2C (stereo not given) | 4 mg/kg | 2.5 mg/kg | –
Cc1nn(C)c2c1C(c1ccccc1F)=NCC(=O)N2 | 8 mg/kg | 2.5 mg/kg | –
Cc1nn(C)c2c1C(c1cccs1)=NCC(=O)N2 | – | 40 mg/kg | –
CN1C(=O)CN=C(c2ccccc2)c2cc(Cl)ccc21 [DIAZEPAM] | 4 mg/kg | 1.25 mg/kg | –
CCCCc1nn(C)c2c1C(c1ccccc1Cl)=NCC(=O)N2C | 125 mg/kg | > 40 mg/kg | –
CCc1nn(C)c2c1C(c1ccccc1F)=NCC(=O)N2C | 4 mg/kg | 1.25 mg/kg | –
CC(C)c1nn(C)c2c1C(c1ccccc1Cl)=NCC(=O)N2 | 125 mg/kg | > 40 mg/kg | –
Cc1nn(C)c2c1C(c1c(F)cccc1F)=NCC(=O)N2C | 2 mg/kg | 20 mg/kg | –
Cc1nn(-c2ccccc2)c2c1C(c1ccccc1)=NCC(=O)N2 | > 500 mg/kg | > 40 mg/kg | –
Cc1nn(C)c2c1C(c1ccccc1Cl)=NCC(=O)N2 | 16 mg/kg | 2.5 mg/kg | –
Cc1nn(C)c2c1C(c1ccccc1F)=NCC(=O)N2C [ZOLAZEPAM] | 2 mg/kg | 0.32 mg/kg | 5
CCCc1nn(C)c2c1C(c1ccccc1Cl)=NCC(=O)N2 | 250 mg/kg | > 40 mg/kg | –
COc1nn(C)c2c1C(c1ccccc1F)=NCC(=O)N2C | 8 mg/kg | 10 mg/kg | –
CCCn1nc(C)c2c1N(C)C(=O)CN=C2c1ccccc1Cl | 16 mg/kg | 2.5 mg/kg | –
CCN1C(=O)CN=C(c2ccccc2F)c2c(C)nn(C)c21 | 32 mg/kg | 5 mg/kg | –
Cc1nn(C)c2c1C(c1ccccc1)=NCC(=O)N2C.Cl | 4 mg/kg | 2.5 mg/kg | –
CCn1nc(C)c2c1N(C)C(=O)CN=C2c1ccccc1F | 4 mg/kg | 1.25 mg/kg | –
CCc1nn(C)c2c1C(c1ccccc1Cl)=NCC(=O)N2 | 32 mg/kg | 2.5 mg/kg | –

Compound | minimal effective dose (Rattus norvegicus [1]) | minimal effective dose (Rattus norvegicus [2]) | Ratio (Rattus norvegicus [3])
Cc1nn(C)c2c1C(c1ccccc1F)NCC(=O)N2C.Cl (stereo not given) | 4 mg/kg | 1.2 mg/kg | –
CCc1nn(C)c2c1C(c1ccccc1)=NCC(=O)N2C | 4 mg/kg | 1.25 mg/kg | –
CCCCn1nc(C)c2c1NC(=O)CN=C2c1ccccc1Cl | 32 mg/kg | 40 mg/kg | –
Cc1nn(-c2ccccc2)c2c1C(c1ccccc1Cl)=NCC(=O)N2 | 500 mg/kg | 20 mg/kg | –
CCCCc1nn(C)c2c1C(c1ccccc1Cl)=NCC(=O)N2 | > 500 mg/kg | > 40 mg/kg | –
CCc1nn(C)c2c1C(c1ccc(F)cc1)=NCC(=O)N2C | > 500 mg/kg | > 40 mg/kg | –
Cl.Cn1ncc2c1NC(=O)CN=C2c1ccccc1 | 250 mg/kg | > 80 mg/kg | –
CCn1nc(C)c2c1NC(=O)CN=C2c1ccccc1Cl | 8 mg/kg | 5 mg/kg | –
Cc1nn(C2CCCCC2)c2c1C(c1ccccc1Cl)=NCC(=O)N2 | > 500 mg/kg | > 40 mg/kg | –
CC(C)c1nn(C)c2c1C(c1ccccc1Cl)=NCC(=O)N2C | 63 mg/kg | > 40 mg/kg | –
Cc1nn(C)c2c1C(c1ccccc1Br)=NCC(=O)N2C | 4 mg/kg | 5 mg/kg | –
CCCc1nn(C)c2c1C(c1ccccc1Cl)=NCC(=O)N2C | 63 mg/kg | > 40 mg/kg | –
C=CCN1C(=O)CN=C(c2ccccc2Cl)c2c(C)nn(CC)c21 | 63 mg/kg | > 40 mg/kg | –
CCn1nc(C)c2c1NC(=O)CN=C2c1ccccc1F | 8 mg/kg | 2.5 mg/kg | –
CCc1nn(C)c2c1C(c1cccc(F)c1)=NCC(=O)N2 | 32 mg/kg | 20 mg/kg | –
Cc1nn(C)c2c1C(c1ccccc1)=NC(O)C(=O)N2C (stereo not given) | 16 mg/kg | 5 mg/kg | –
CCc1nn(C)c2c1C(c1ccccc1Cl)=NCC(=O)N2C | 16 mg/kg | 0.63 mg/kg | –
Cc1nn(C2CCCCC2)c2c1C(c1ccccc1Cl)=NCC(=O)N2C | 63 mg/kg | > 40 mg/kg | –
CCc1nn(C)c2c1C(c1cccc(F)c1)=NCC(=O)N2C | 32 mg/kg | 10 mg/kg | –
CCn1nc(C)c2c1N(C)C(=O)CN=C2c1ccccc1Cl | 4 mg/kg | 0.63 mg/kg | –

Compound | minimal effective dose (Rattus norvegicus [1]) | minimal effective dose (Rattus norvegicus [2]) | Ratio (Rattus norvegicus [3])
CCc1nn(C)c2c1C(c1ccc(F)cc1)=NCC(=O)N2 | > 500 mg/kg | > 40 mg/kg | –
CCCCn1nc(C)c2c1NC(=O)CN=C2c1cccc(Cl)c1 | > 500 mg/kg | > 40 mg/kg | –
Cc1nn(C)c2c1C(c1ccccc1Cl)=NCC(=O)N2C.Cl | 4 mg/kg | 2.5 mg/kg | –
CCc1nn(C)c2c1C(c1ccccc1F)=NCC(=O)N2 | 2 mg/kg | 1.25 mg/kg | –
Cc1nn(C)c2c1C(c1ccccc1[N+](=O)[O-])=NCC(=O)N2C | 8 mg/kg | – | –
Cc1nn(C)c2c1C(c1ccccc1)=NCC(=O)N2C | 4 mg/kg | 2.5 mg/kg | –
Cc1nn(C)c2c1C(c1ccccc1N=[N+]=[N-])=NCC(=O)N2C | 63 mg/kg | > 40 mg/kg | –
CCCCn1nc(C)c2c1N(C)C(=O)CN=C2c1ccccc1Cl | 16 mg/kg | 40 mg/kg | –
Cc1nn(C)c2c1C(c1ccccc1)=NCC(=O)N2 | 16 mg/kg | 10 mg/kg | –
CCc1nn(C)c2c1C(c1ccccc1)NCC(=O)N2C.Cl (stereo not given) | 63 mg/kg | > 40 mg/kg | –
CCc1nn(C)c2c1C(c1ccccc1)=NCC(=O)N2 | 8 mg/kg | 2.5 mg/kg | –
CCc1nn(C)c2c1C(c1ccccc1F)=NCC(=O)N2.Cl | 2 mg/kg | 1.25 mg/kg | –
CCCn1nc(C)c2c1NC(=O)CN=C2c1ccccc1Cl | 63 mg/kg | 40 mg/kg | –
Cc1nn(C)c2c1C(c1ccccc1F)=NCC(=O)N2C.Cl [ZOLAZEPAM HYDROCHLORIDE] | 2 mg/kg | 0.32 mg/kg | –
CC(=O)OC1N=C(c2ccccc2F)c2c(C)nn(C)c2N(C)C1=O (stereo not given) | 8 mg/kg | 20 mg/kg | –
Cc1nn(C)c2c1C(c1cccc(Cl)c1)=NCC(=O)N2 | > 500 mg/kg | > 40 mg/kg | –
Cc1nn(C)c2c1C(c1ccccc1)=[N+]([O-])CC(=O)N2C | 63 mg/kg | > 40 mg/kg | –
Cn1nc(Cl)c2c1NC(=O)CN=C2c1ccccc1 | 63 mg/kg | 40 mg/kg | –
